Test results: US20160067208A1, “ADHESION PREVENTING AGENT” (FARNEX INCORPORATED, priority 2013, published 2016)

Tests used:
Format in all cases: physicochemical
[1] = Viscosity of the compound itself (Gemini II, Malvern); conditions: 25° C., at shear velocity of 92 1/s
Method: In addition, the amphipathic compound to be used for the adhesion preventing agent of the present invention has low viscosity in itself. Specifically, the amphipathic compound to be used for the adhesion preventing agent of the present invention has a viscosity of preferably 15.0 Pa·s or less, more preferably 11.0 Pa·s or less, and further preferably 6.0 Pa·s or less as measured at 25° C. in itself. The viscosity can be measured using, for example, a viscosity and viscoelasticity measuring apparatus (Gemini II, Malvern Instruments Ltd.) at 25° C.
The viscosity of each of the compounds described in the Examples 1-7 was measured using a viscosity/viscoelasticity measuring instrument (Gemini II, Malvern) at the temperature of 25° C.

[2] = Shear viscosity of liquid crystal gels; conditions: gel prepared by addition of water, 25° C.
Method: (§1) The viscosity was measured for the gels prepared by addition of water to the compounds synthesized in Examples 1, 4, and 5. Specifically, for the gel samples obtained by mixing homogeneously according to the same procedure as in Example 9, the shear viscosity was measured at a temperature of 25° C., using a viscosity and viscoelasticity measuring apparatus (Gemini II, Malvern Instruments Ltd.; cone plate φ25, cone angle 1°).
as §1, with “45” for “1, 4,”, “50, and C17 glycerin ester synthesized in Example 13.” for “5.”

[3] = SAXS analysis of compound/water system (liquid crystal formation); conditions: compound/water system gel, 50% by mass in water-excess condition, room temperature (25° C.)
Text: Whether or not a liquid crystal structure has a cubic lattice may be determined by a small-angle X-ray scattering (SAXS) method, for the purpose of confirming liquid crystal formation. First, an amphipathic compound/water system sample with a predetermined concentration can be filled into an X-ray capillary tube made of quartz, for example, and the capillary tube is sealed with an oxy-fuel burner, and subjected to SAXS assay.
Mono-O-(5,9,13-trimethyltetradeca-4,8,12-trienoyl)glycerol synthesized in Example 1 and pure water were introduced into a mixing device at the concentration of 50% by mass of mono-O-(5,9,13-trimethyltetradeca-4,8,12-trienoyl)glycerol (in water-excess condition), and they were mixed at room temperature (25° C.) and left for 24 hours to obtain a homogeneous mixture. Then the separated water was removed. Thus, a sample of mono-O-(5,9,13-trimethyltetradeca-4,8,12-trienoyl)glycerol/water system was obtained as a white turbid to colorless transparent gel composition in appearance (it was referred to below as the gel sample).
Subsequently, the gel sample was analyzed by small-angle x-ray scattering (SAXS). The NANO-Viewer nano-scale X-ray structure analysis equipment (Rigaku) was used for SAXS analysis, which was performed by X-ray irradiation at room temperature (25° C.), 40 kV, 50 mA, wavelength λ=0.1542 nm (Cu-Kα).
Each of the compounds synthesized in Example 32, 33, 43, 45, 49, and 50 and water were homogeneously mixed in accordance with the same procedure as in Example 9 to obtain a sample of each compound/water system being a gel in appearance. SAXS analysis of these gel samples was performed in the same manner as in Example 9. […]

Row | SMILES | Viscosity [1] | also measured
1 | CC(C)=CCC/C(C)=C/CCC(C)=CCCC(=O)OCC(CO)(CO)CO (racemic) [Example 3, mono-O-(5,9,13-trimethyltetradeca-4,8,12-trienoyl)pentaerythritol] | 2.5 Pa·s | –
2 | CC(C)=CCC/C(C)=C/CC/C(C)=C/CCC(C)=CCCC(=O)OCC(O)CO (racemic) [Example 4, mono-O-(5,9,13,17-tetramethyloctadeca-4,8,12,16-tetraenoyl)glycerol] | 0.37 Pa·s | Viscosity ([2]; shear velocity 12 1/s): 39 Pas · sec; Viscosity ([2]; shear velocity 100.8 1/s): 1.4 Pas · sec; liquid crystal structure (SAXS peak value ratio) [3]: reverse hexagonal liquid crystal
3 | CC(C)=CCC/C(C)=C/CC/C(C)=C/CCC(C)=CCCC(=O)OCC(CO)(CO)CO (racemic) [Example 6, mono-O-(5,9,13,17-tetramethyloctadeca-4,8,12,16-tetraenoyl)pentaerythritol] | 3.3 Pa·s | liquid crystal structure (SAXS peak value ratio) [3]: cubic liquid crystal that belongs to the crystallographic space group Pn3m
4 | CC(C)=CCC/C(C)=C/CCC(C)=CCOCC(O)CO (racemic) [Example 28, mono-O-(3,7,11-trimethyldodeca-2,6,10-trienyl)glycerol] | 0.20 Pa·s | –
5 | CC(C)=CCC/C(C)=C/CCC(C)=CCOCC(CO)(CO)CO (racemic) [Example 30, mono-O-(3,7,11-trimethyldodeca-2,6,10-trienyl)pentaerythritol] | 1.6 Pa·s | –
6 | CC(C)=CCC/C(C)=C/CCC(C)=CCCCOCC(O)CO (racemic) [Example 31, mono-O-(5,9,13-trimethyltetradeca-4,8,12-trienyl)glycerol] | 0.23 Pa·s | –
7 | CC(C)=CCC/C(C)=C/CCC(C)=CCCCOCC(CO)(CO)CO (racemic) [Example 33, mono-O-(5,9,13-trimethyltetradeca-4,8,12-trienyl)pentaerythritol] | 0.63 Pa·s | liquid crystal structure (SAXS peak value ratio) [3]: cubic liquid crystals that belong to the crystallographic space group Pn3m
8 | CC(C)=CCC/C(C)=C/CC/C(C)=C/CCC(C)=CC(=O)OCC(O)CO (racemic) [Example 41, mono-O-(3,7,11,15-tetramethylhexadeca-2,6,10,14-tetraenoyl)glycerol] | 3.8 Pa·s | –
9 | CC(C)=CCC/C(C)=C/CC/C(C)=C/CCC(C)=CC(=O)OCC(CO)(CO)CO (racemic) [Example 43, mono-O-(3,7,11,15-tetramethylhexadeca-2,6,10,14-tetraenoyl)pentaerythritol] | 14 Pa·s | liquid crystal structure (SAXS peak value ratio) [3]: reverse hexagonal liquid crystals
10 | CC(C)=CCC/C(C)=C/CC/C(C)=C/CCC(C)=CCOCC(O)CO (racemic) [Example 44, mono-O-(3,7,11,15-tetramethylhexadeca-2,6,10,14-tetraenyl)glycerol] | 0.26 Pa·s | –
11 | CC(C)=CCC/C(C)=C/CC/C(C)=C/CCC(C)=CCOCC(CO)(CO)CO (racemic) [Example 46, mono-O-(3,7,11,15-tetramethylhexadeca-2,6,10,14-tetraenyl)pentaerythritol] | 2.9 Pa·s | –
12 | CC(C)=CCC/C(C)=C/CC/C(C)=C/CCC(C)=CCOC(=O)C(O)CO (racemic) [Example 52, 3,7,11,15-tetramethylhexadeca-2,6,10,14-tetraenyl glycerate] | 0.23 Pa·s | –
13 | CC(C)=CCC/C(C)=C/CC/C(C)=C/CCC(C)=CCCCOC(=O)C(O)CO (racemic) [Example 53, 5,9,13,17-tetramethyloctadeca-4,8,12,16-tetraenyl glycerate] | 0.21 Pa·s | –
14 | CC(C)=CCC/C(C)=C/CCC(C)=CCCC(=O)OCC(O)CO (centres unmarked) [Example 1, mono-O-(5,9,13-trimethyltetradeca-4,8,12-trienoyl)glycerol] | 0.26 Pa·s | Viscosity ([2]; shear velocity 12 1/s): 461 Pas · sec; Viscosity ([2]; shear velocity 100.8 1/s): 37 Pas · sec; liquid crystal structure (SAXS peak value ratio) [3]: cubic liquid crystal that belongs to the crystallographic space group Pn3m
15 | CC(C)=CCC/C(C)=C/CCC(C)=CCCC(=O)OCC(O)C(O)CO (centres unmarked) [Example 2, mono-O-(5,9,13-trimethyltetradeca-4,8,12-trienoyl)erythritol] | 4.7 Pa·s | –
16 | CC(C)=CCC/C(C)=C/CC/C(C)=C/CCC(C)=CCCC(=O)OCC(O)C(O)CO (centres unmarked) [Example 5, mono-O-(5,9,13,17-tetramethyloctadeca-4,8,12,16-tetraenoyl)erythritol] | 5.8 Pa·s | Viscosity ([2]; shear velocity 12 1/s): 333 Pas · sec; Viscosity ([2]; shear velocity 100.8 1/s): 17 Pas · sec; liquid crystal structure (SAXS peak value ratio) [3]: cubic liquid crystal that belongs to the crystallographic space group Pn3m
17 | CC(C)=CCC/C(C)=C/CC/C(C)=C/CCC(C)=CCCC(=O)OCC(O)COCC(O)CO (centres unmarked) [Example 7, mono-O-(5,9,13,17-tetramethyloctadeca-4,8,12,16-tetraenoyl)diglycerol] | 2.6 Pa·s | –
18 | CC(=CCCC(=O)OCC(O)CO)CCCC(C)CCCC(C)C (centres unmarked) [Example 13, mono-O-(5,9,13-trimethyltetradec-4-enoyl)glycerol] | 0.48 Pa·s | Viscosity ([2]; shear velocity 10 1/s): 1878 Pas · sec; Viscosity ([2]; shear velocity 105 1/s): 166 Pas · sec
19 | CC(C)=CCC/C(C)=C/CCC(C)=CC(=O)OCC(O)CO (centres unmarked) [Example 27, mono-O-(3,7,11-trimethyldodeca-2,6,10-trienoyl)glycerol] | 3.0 Pa·s | –
20 | CC(C)=CCC/C(C)=C/CCC(C)=CCCCOCC(O)C(O)CO (centres unmarked) [Example 32, mono-O-(5,9,13-trimethyltetradeca-4,8,12-trienyl)erythritol] | 1.2 Pa·s | liquid crystal structure (SAXS peak value ratio) [3]: cubic liquid crystals that belong to the crystallographic space group Pn3m
21 | CC(C)=CCC/C(C)=C/CCC(C)=CCCCOCC(O)COCC(O)CO (centres unmarked) [Example 34, mono-O-(5,9,13-trimethyltetradeca-4,8,12-trienyl)diglycerol] | 0.37 Pa·s | –
22 | CC(C)=CCC/C(C)=C/CCC(C)=CCCCOC(=O)C(O)CO (centres unmarked) [Example 36, 5,9,13-trimethyltetradeca-4,8,12-trienyl glycerate] | 0.16 Pa·s | –
23 | CC(C)=CCCC(C)=CCCC(C)=CCCC(C)=CCCCOCC(O)CO (centres unmarked) [Example 48, mono-O-(5,9,13,17-tetramethyloctadeca-4,8,12,16-tetraenyl)glycerol] | 0.16 Pa·s | –
24 | CC(C)=CCC/C(C)=C/CC/C(C)=C/CCC(C)=CCCCOCC(O)C(O)CO (centres unmarked) [Example 49, mono-O-(5,9,13,17-tetramethyloctadeca-4,8,12,16-tetraenyl)erythritol] | – | liquid crystal structure (SAXS peak value ratio) [3]: reverse hexagonal liquid crystals
25 | CC(C)=CCC/C(C)=C/CC/C(C)=C/CCC(C)=CCCCOCC(O)COCC(O)CO (centres unmarked) [Example 51, mono-O-(5,9,13,17-tetramethyloctadeca-4,8,12,16-tetraenyl)diglycerol] | 1.4 Pa·s | –
26 | CC(=CC(=O)OCC(O)CO)CCCC(C)CCCC(C)C (centres unmarked) [Example 54, mono-O-(3,7,11-trimethyldodec-2-enoyl)glycerol] | 0.45 Pa·s | –
27 | CC(=CC(=O)OCC(CO)(CO)CO)CCCC(C)CCCC(C)CCCC(C)C (centres unmarked) [Example 55, mono-O-(3,7,11,15-tetramethylhexadec-2-enoyl)pentaerythritol] | 10.6 Pa·s | –
28 | CC(=CCCCOCC(CO)(CO)CO)CCCC(C)CCCC(C)C (centres unmarked) [Example 56, mono-O-(5,9,13-trimethyltetradec-4-enyl)pentaerythritol] | 0.98 Pa·s | –
29 | CC(=CCCCOCC(O)CO)CCCC(C)CCCC(C)CCCC(C)C (centres unmarked) [Example 58, mono-O-(5,9,13,17-tetramethyloctadec-4-enyl)glycerol] | 0.44 Pa·s | –
